The source of these data is patent publication US20250170248A1, “SMARCA DEGRADERS AND USES THEREOF” (Kymera Therapeutics, Inc., priority 2021, published 2025).

One may read the Dmax as the greatest extent of degradation seen. Usually DC50 stands for the concentration at which degradation of the target reaches its halfway point.

Common to all, as to format: cell-based
For experiment [1], the target named is T1, SMARCA2 (Homo sapiens, UniProt P51531). Briefly: SMARCA2 Western blot degradation in MV4-11 cells. Details: SMARCA2/SMARCA4 protein degradation selectivity in MV4-11 cells; endogenous in cells; host or cells: MV4-11. As to conditions: for Dmax: MV4-11, MV4-11 cells, read-out: SMARCA2 MSD MV411 degradation 24 h: average Dmax %; for Dmax / DC50 / SMARCA2 MSD MV411 degradation 24 h: average Dmax %: 24 h; for DC50 / SMARCA2 MSD MV411 degradation 24 h: average Dmax % / Selectivity in MV411: MV4-11 cells; for DC50: read-out: SMARCA2 MSD MV411 degradation 24 h: Mean external-Abs DC50; for Selectivity in MV411: SMARCA2/4 selectivity.
T1 sequence (P51531 whole entry): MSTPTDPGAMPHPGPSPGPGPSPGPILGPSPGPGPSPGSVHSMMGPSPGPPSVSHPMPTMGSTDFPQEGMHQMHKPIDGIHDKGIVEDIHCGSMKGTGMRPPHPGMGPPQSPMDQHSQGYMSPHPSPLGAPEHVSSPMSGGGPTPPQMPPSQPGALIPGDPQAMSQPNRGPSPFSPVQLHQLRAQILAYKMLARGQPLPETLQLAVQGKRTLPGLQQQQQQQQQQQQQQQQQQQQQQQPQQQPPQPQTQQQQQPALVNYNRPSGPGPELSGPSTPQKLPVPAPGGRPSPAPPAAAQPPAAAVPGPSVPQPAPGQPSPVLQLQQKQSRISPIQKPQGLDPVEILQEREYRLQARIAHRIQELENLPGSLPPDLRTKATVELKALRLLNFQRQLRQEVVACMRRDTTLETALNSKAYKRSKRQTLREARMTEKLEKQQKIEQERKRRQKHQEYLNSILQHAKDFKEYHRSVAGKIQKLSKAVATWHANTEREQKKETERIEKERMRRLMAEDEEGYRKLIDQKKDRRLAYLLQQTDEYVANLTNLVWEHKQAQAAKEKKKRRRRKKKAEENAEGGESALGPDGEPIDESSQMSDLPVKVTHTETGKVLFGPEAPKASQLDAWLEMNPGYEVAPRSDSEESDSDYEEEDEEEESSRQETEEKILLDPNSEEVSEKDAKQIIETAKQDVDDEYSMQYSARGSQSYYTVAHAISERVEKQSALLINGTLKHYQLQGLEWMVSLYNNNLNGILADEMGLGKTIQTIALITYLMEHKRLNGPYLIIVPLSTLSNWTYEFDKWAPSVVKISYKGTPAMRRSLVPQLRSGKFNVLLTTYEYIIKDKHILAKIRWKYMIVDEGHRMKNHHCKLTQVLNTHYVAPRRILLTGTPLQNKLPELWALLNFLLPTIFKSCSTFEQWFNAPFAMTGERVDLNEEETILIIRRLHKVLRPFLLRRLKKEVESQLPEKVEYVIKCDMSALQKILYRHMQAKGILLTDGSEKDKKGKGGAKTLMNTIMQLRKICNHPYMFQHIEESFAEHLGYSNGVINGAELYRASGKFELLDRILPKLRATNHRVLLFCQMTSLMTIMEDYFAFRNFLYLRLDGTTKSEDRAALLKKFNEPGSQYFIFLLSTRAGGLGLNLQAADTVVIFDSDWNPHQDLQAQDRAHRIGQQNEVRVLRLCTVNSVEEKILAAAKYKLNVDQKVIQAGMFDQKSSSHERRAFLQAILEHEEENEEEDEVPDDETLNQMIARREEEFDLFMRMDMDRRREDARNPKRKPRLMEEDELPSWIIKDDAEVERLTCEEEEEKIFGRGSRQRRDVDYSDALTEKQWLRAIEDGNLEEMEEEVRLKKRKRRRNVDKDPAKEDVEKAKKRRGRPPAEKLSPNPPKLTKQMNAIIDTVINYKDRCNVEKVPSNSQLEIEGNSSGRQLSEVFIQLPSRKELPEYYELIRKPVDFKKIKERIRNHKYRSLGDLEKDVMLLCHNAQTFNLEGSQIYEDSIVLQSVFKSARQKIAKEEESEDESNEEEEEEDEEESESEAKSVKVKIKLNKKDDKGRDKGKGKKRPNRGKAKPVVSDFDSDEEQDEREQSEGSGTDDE

The target of experiment [2] is T1, SMARCA2. Nature of the experiment: MSD SMARCA2 degradation in A549 cell line. As to conditions: for Dmax: A549, A549 cells; for Dmax / DC50: 24 h; for DC50: read-out: SMARCA2 MSD A549 degradation 24 h: Average external-Abs DC50. On the procedure:
Example 10. MSD SMARCA2 Degradation in A549 Cell Line
Cells were seeded into 96-well plates (A549 cells: 2×10^4 cells/well/100 ul media) and incubated overnight. The next day, 200 nL compound were added into the intermediate plate with Echo (Labcyte 550) from source plate containing a 3-fold serial dilution from top concentration of 1 mM. The culture medium was changed with 8 0ul of fresh medium and 80 μL of 2× compound solution was added into the well to make a final concentration of 1000 nM, 333.3 nM, 111.1 nM, 37.04 nM, 12.35 nM, 4.115 nM, 1.372 nM, 0.457 nM, 0.152 nM and 0 nM (DMSO). The wells were mixed and then incubated for 24 hours. The media was aspirated from the cultures and 60 ul pre-chilled PIPA lysis buffer (Boston BioProducts BP-115D) with protease/phosphatase inhibitor (Roche 05892791001/Roche 04906837001) was added into the well to lyze the cells for 20 minutes at 4° C. The MSD plate (L15XA) was coated with 40 uL cell lysate and incubated at 4° C. overnight. The next day, the plate was washed three times with TBST (CST #9997S), 150 ul/well. The MSD plates was blocked with 150 ul blocking buffer per well and shaked for 1 hr at RT, 600 rpm. The blocking buffer was 3% Blocker A (MSD, R93BA-4) in TBST. The MSD plate was washed three times with 150 uL/well of TBST and 25 ul/well of detection antibody (Rabbit anti-SMARCA2/BRM antibody, 100 μg/mL, ab223735) was added at final concentration of 1 μg/mL diluted in 1% Blocking buffer and shaken for 1 hour at RT, 600 rpm. The MSD plate was washed three times with 150 ul/well of TBST and 25 ul/well of SULFO-TAG anti-rabbit antibody (MSD, R32AB-1) was added at final concentration of 1 μg/ml diluted in 1% Blocking buffer and shaken for 1 hour at RT, 600 rpm. The MSD plate was washed three times with 150 uL/well of TBST and 150 ul/well of 2× MSD reading buffer diluted from 4× (MSD, R92TC-2) with water was added. Lastly, the MSD instrument was read.
The letter codes for SMARCA2 degradation potency (DC50) include: A (<10 nM), B (10-50 nM), C (>50-100 nM), and D (>100 nM). The letter codes for the percentage of SMARCA degradation after 24 hours (Dmax %) include: A (>90% degradation), B (>70-90% degradation), C (50-70% degradation), and D (<50% degradation).

Another experiment concerns the target T2, SMARCA4 (Homo sapiens, UniProt P51532).
T2 construct: SMARCA2/SMARCA4 protein degradation selectivity in MV4-11 cells; endogenous in cells; host or cells: MV4-11
Briefly: SMARCA4 Western blot degradation in MV4-11 cells. Conditions: for SMARCA4 MSD MV411 degradation 24 h: average Dmax % / DC50: MV4-11 cells; for DC50 / Dmax: 24 h; for DC50: read-out: SMARCA4 MSD MV411 degradation 24 h: Mean external-Abs DC50; for Dmax: MV4-11, MV4-11 cells, read-out: SMARCA4 MSD MV411 degradation 24 h: average Dmax %. The protocol:
Example 11. SMARCA2 and SMARCA4 Western Blot MV4-11 Degradation
Cells were seeded into 6-well plates (MV4-11:4×10^6 cells/well/1 ml) and 1 ml of 2× compound solution was added into the well to make the final concentration and the plates were mixed well and incubated for 24 hours (No cytotoxicity was observed). The cell were collected with media and spun at 3000 rpm for 5 minutes. The supernatant was aspirated and the well and the cells were washed with cold PBS once and combined for centrifugation again; the supernatant aspirated again. 200 uL pre-chilled RIPA lysis buffer (Boston BioProducts BP-115D) with protease/phosphatase inhibitor (Roche 05892791001/Roche 04906837001) was directly added into the tube to lyze the cells for 20 minutes on ice. The cell lysate were collected into EP tubes and spun at 13000 rpm for 20 minutes and 72 uL supernatant was transferred to a fresh EP tube containing 18 μL of 5× loading buffer (Beyotime Bio P0015) to make the loading samples. The samples were heated to 100° C. for 10 minutes and cooled to RT and microcentrifuged. 20 μL of samples were loaded onto SDS-PAGE gel (Novex, WG1402BOX) and the gel was run at 80 V for 20 minutes and 120 V for 1.5 hours. The samples were electrotransfer to a NC membrane using wet-transfer method with 250 mA for 2.5 hours. The membrane was blocked with LICOR blocking buffer (LI COR,927-50000) for 1 hour. The membrane was washed three times with TBST(CST #9997S), 5 minutes each. Incubation was performed with primary antibody prepared in blocking buffer with 0.1% Tween-20 (Solarbio, P8220) at 4° C. overnight (Anti-SMARCA2/BRM antibody (ab15597) 1:500; Anti-BRG1 antibody [EPR3912](ab108318) 1:1000; Rabbit anti-Bafl80 antibody [EPR15860](Abcam,ab196022) 1:1000; mouse anti-beta-Actin (8H10D10) (CST #3700) 1:10000). The membrane was washed three times with TBST, 5 minutes each. Incubation with secondary antibody was performed for 1 hour at RT (anti-rabbit IgG (Licor,926-32211) 1:5000; anti-mouse IgG (LI-COR, 926-68070) 1:5000). The membrane was washed three times with 5 minutes each and lastly the LiCOR was read.
The letter codes for SMARCA2/4 degradation potency (DC50) include: A (<1 nM), B (1-10 nM), C (>10-100 nM), and D (>100 nM). The letter codes for the percentage of SMARCA2/4 degradation after 24 hours (Dmax %) include: A (>90% degradation), B (>70-90% degradation), C (50-70% degradation), and D (<50% degradation). The letter codes of SMARCA2/4 selectivity include: A (>500 fold), B (>100-500 fold), C (10-100 fold), and D (<10 fold). Table 8. SMARCA2/4 Selectivity Results

T2 sequence (P51532 whole entry): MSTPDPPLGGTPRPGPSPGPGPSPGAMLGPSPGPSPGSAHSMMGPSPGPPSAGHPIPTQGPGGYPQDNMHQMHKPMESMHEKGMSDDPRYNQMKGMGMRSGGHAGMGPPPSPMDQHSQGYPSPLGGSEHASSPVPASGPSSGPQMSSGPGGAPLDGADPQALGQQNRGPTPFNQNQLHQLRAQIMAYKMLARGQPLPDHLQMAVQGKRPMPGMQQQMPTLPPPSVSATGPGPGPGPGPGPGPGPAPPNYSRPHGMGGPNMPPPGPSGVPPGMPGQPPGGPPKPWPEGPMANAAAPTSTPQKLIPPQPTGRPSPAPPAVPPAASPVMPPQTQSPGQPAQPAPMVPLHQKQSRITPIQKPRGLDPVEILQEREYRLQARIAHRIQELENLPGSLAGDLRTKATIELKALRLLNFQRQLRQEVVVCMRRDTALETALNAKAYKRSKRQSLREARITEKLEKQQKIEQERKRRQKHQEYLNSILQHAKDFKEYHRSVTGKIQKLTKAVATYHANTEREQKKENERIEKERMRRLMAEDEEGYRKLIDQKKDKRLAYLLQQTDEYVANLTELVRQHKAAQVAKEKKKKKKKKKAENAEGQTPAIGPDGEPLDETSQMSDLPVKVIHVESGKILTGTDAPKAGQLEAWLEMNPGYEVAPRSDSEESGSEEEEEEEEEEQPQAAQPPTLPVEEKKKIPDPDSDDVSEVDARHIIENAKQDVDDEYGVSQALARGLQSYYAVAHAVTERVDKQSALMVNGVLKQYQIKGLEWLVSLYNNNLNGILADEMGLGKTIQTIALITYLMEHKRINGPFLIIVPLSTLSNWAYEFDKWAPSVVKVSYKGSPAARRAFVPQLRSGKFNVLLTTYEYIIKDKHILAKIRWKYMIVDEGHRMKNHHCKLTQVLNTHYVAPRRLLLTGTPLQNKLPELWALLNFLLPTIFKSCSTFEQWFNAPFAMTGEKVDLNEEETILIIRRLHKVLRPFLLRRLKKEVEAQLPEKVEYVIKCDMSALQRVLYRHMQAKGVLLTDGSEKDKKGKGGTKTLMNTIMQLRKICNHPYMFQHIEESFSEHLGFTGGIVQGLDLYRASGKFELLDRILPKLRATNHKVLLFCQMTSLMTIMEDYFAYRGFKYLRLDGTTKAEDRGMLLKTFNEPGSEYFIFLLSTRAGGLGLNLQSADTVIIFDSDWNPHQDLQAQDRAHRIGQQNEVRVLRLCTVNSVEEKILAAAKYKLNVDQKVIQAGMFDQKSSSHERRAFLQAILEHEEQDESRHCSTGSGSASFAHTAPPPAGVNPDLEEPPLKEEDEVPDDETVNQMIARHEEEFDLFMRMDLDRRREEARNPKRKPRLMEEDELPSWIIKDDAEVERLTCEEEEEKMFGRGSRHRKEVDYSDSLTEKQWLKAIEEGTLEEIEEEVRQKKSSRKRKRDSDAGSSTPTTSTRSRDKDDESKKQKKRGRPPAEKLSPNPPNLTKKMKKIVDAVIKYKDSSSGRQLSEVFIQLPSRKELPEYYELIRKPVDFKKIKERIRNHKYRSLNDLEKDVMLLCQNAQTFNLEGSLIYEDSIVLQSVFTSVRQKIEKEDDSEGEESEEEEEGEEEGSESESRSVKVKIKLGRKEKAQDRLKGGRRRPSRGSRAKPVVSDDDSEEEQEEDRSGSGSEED

Take `C#Cc1ccc(CNC(=O)[C@@H]2C[C@@H](O)CN2C(=O)[C@@H](NC(=O)[C@H]2CCC3(CC2)C[C@H](N2CCC(c4cnc(N5CCN6c7cc(-c8cccc(Cl)c8O)nnc7NC[C@@H]6C5)nc4)CC2)C3)C(C)(C)C)cc1` (single isomer, unassigned) [I-153]: the Dmax on SMARCA2 [1] is 70 to 90%; on SMARCA2 [2], above 90%. The half-maximal degradation concentration (DC50) at SMARCA2 [1] is 1 to 10 nM; on SMARCA2 [2] (A549 cells), above 100 nM.

As to `Cc1ncsc1-c1ccc(CNC(=O)[C@@H]2C[C@@H](O)CN2C(=O)[C@@H](NC(=O)[C@H]2CCC3(CC2)C[C@H](N2CCN(c4cnc(N5CCc6[nH]c7nnc(-c8ccccc8O)cc7c6[C@H]5C)nc4)CC2)C3)C(C)(C)C)cc1` (single isomer, unassigned) [I-118], on SMARCA2 [1], the “SMARCA2 MSD MV411 degradation 24 h: average Dmax %” value is “C (C (50-70% degradation))” and the DC50 was 10 to 100 nM. Moreover, at SMARCA2 [2] (A549 cells), the “SMARCA2 MSD A549 degradation 24 h: Average Dmax %” value is reported as “B (B (>70-90% degradation))” and the DC50 was above 100 nM.

As to `Cc1ncsc1-c1ccc(CNC(=O)[C@@H]2C[C@@H](O)CN2C(=O)[C@@H](NC(=O)N2CCC3(CC2)CC(N2CCC(c4cnc(N5CCc6[nH]c7nnc(-c8ccccc8O)cc7c6[C@@H]5C)nc4)CC2)C3)C(C)(C)C)cc1` [I-59], at SMARCA2 [2], the Dmax is below 50%.

On SMARCA2 [2], `C#CCOc1cc(C(C(=O)N2C[C@H](O)C[C@H]2C(=O)NCc2ccc(-c3scnc3C)cc2O[C@H]2CC[C@@H](N3CCC(c4cnc(N5CCc6[nH]c7nnc(-c8ccccc8O)cc7c6[C@@H]5C)nc4)CC3)CC2)C(C)C)on1` (some centres unmarked) [I-39] registered a Dmax of 50 to 70%. Also, at SMARCA2 [2] (A549 cells), the DC50 is above 100 nM.

Regarding `C#Cc1ccc(CNC(=O)[C@@H]2C[C@@H](O)CN2C(=O)[C@@H](NC(=O)[C@H]2CCC3(CC2)C[C@H](N2CCC(c4cnc(N5CCN6c7cc(-c8ccccc8O)nnc7NC[C@H]6C5)nc4)CC2)C3)C(C)(C)C)cc1` (single isomer, unassigned) [I-26], at SMARCA2 [1], the “SMARCA2 MSD MV411 degradation 24 h: average Dmax %” value was “B (B (>70-90% degradation))”, the DC50 was 1 to 10 nM and the “Selectivity in MV411” value was “B (B (>100-500 fold))”. In addition, at SMARCA4, the “SMARCA4 MSD MV411 degradation 24 h: average Dmax %” value is listed as “C (C (50-70% degradation))” and the half-maximal degradation concentration (DC50) is above 100 nM.

As to `Cc1ncsc1-c1ccc(CNC(=O)[C@@H]2C[C@@H](O)CN2C(=O)[C@@H](NC(=O)C2(F)CC2)C(C)(C)C)c(OC2CN(CCN3CCC(c4cnc(N5CCc6[nH]c7nnc(-c8ccccc8O)cc7c6C5C)nc4)CC3)C2)c1` (some centres unmarked) [I-44], at SMARCA2 [1], the Dmax lay within 70 to 90%, the DC50 was in the range of 10 to 100 nM and the “Selectivity in MV411” value was “D (D (<10 fold))”. For the same compound, on SMARCA4, the Dmax lay in the range of 70 to 90% and the DC50 is above 100 nM.

As to `Cc1ncsc1-c1ccc(CNC(=O)[C@@H]2C[C@@H](O)CN2C(=O)[C@@H](NC(=O)[C@H]2CC3(CC[C@H](N4CCC(c5cnc(N6CCN7c8cc(-c9ccccc9O)nnc8NC[C@H]7C6)nc5)CC4)CC3)C2)C(C)(C)C)cc1` (single isomer, unassigned) [I-66], on SMARCA2 [1], the “SMARCA2 MSD MV411 degradation 24 h: average Dmax %” value is on record as “B (B (>70-90% degradation))”, the DC50 fell in the range of 10 to 100 nM and the “Selectivity in MV411” value was “B (B (>100-500 fold))”. For the same compound, at SMARCA4, the “SMARCA4 MSD MV411 degradation 24 h: average Dmax %” value is on record as “D (D (<50% degradation))” and the DC50 is above 100 nM.

For `C#Cc1ccc([C@H](C)NC(=O)[C@@H]2C[C@@H](O)CN2C(=O)[C@@H](NC(=O)[C@H]2CCC3(CC2)C[C@H](N2CCC(c4cnc(N5CCN6c7cc(-c8ccccc8O)nnc7NC[C@H]6C5)nc4)CC2)C3)C(C)(C)C)cc1` (single isomer, unassigned) [I-57], on SMARCA2 [1], the “SMARCA2 MSD MV411 degradation 24 h: average Dmax %” value is “B (B (>70-90% degradation))”, the DC50 is 1 to 10 nM and the “Selectivity in MV411” value is listed as “B (B (>100-500 fold))”. On SMARCA4, the “SMARCA4 MSD MV411 degradation 24 h: average Dmax %” value is recorded as “D (D (<50% degradation))” and the DC50 was above 100 nM.

For the compound `C#Cc1ccc(CNC(=O)[C@@H]2C[C@@H](O)CN2C(=O)[C@@H](NC(=O)[C@H]2CCC3(CC2)C[C@H](N2CCC(c4cnc(N5CCN6c7cc(-c8ccccc8O)nnc7NC[C@H]6C5)nc4)CC2)C3)C(C)(C)C)cc1` (single isomer, unassigned) [I-25], at SMARCA2 [1], the Dmax is 70 to 90%, the DC50 was below 1 nM and the “Selectivity in MV411” value is listed as “C (C (10-100 fold))”. At SMARCA4, the Dmax fell in the range of 70 to 90% and the DC50 is 10 to 100 nM.

For the compound `Cc1cc(F)ccc1C#CCNC(=O)[C@@H]1C[C@@H](O)CN1C(=O)[C@@H](NC(=O)[C@H]1CCC2(CC1)C[C@H](N1CCC(c3cnc(N4CCN5c6cc(-c7ccccc7O)nnc6NC[C@H]5C4)nc3)CC1)C2)C(C)(C)C` (some centres unmarked) [I-115], the DC50 on SMARCA2 [2] (A549 cells) was above 100 nM.

On to `Cc1ncsc1-c1ccc(CNC(=O)[C@@H]2C[C@@H](O)CN2C(=O)[C@@H](NC(=O)N2CC3(CCC(N4CCC(c5cnc(N6CCN7c8cc(-c9ccccc9O)nnc8NC[C@H]7C6)nc5)CC4)CC3)C2)C(C)(C)C)cc1` [I-69], for which, at SMARCA2 [1], the Dmax was above 90%, the DC50 was below 1 nM and the “Selectivity in MV411” value was “D (D (<10 fold))”. Besides, at SMARCA4, the Dmax is above 90% and the 50% degradation concentration (DC50) lay in the range of 1 to 10 nM.

Consider `CC(C)C(C(=O)N1C[C@H](O)C[C@H]1C(=O)NCc1ccc(Cl)cc1)c1cc(N2CC3(CC(N4CCC(c5cnc(N6CCN7c8cc(-c9ccccc9O)nnc8NC[C@H]7C6)nc5)CC4)C3)C2)no1` (some centres unmarked) [I-17], for which, at SMARCA2 [1], the Dmax is below 50%, the DC50 is above 100 nM and the “Selectivity in MV411” value is given as “C (C (10-100 fold))”. In addition, on SMARCA4, the Dmax is below 50% and the DC50 is above 100 nM.
